Experiment [1] deals with cytokine (IL-1 and IFN-γ) insufflated rats. The experiment can be described thus: IL-1 and IFN-γ insufflation inflammatory acute lung injury (ARDS) in rats. The class given is in vivo. How it is done: Insufflating IL-1 and interferon-γ (IFN-γ) produced an inflammatory acute lung injury (ARDS) in rats 24 hours later (9). Cytokine insufflated rats had increased lung lavage LDH concentrations (FIG. 2A) and neutrophil numbers (FIG. 2B) compared to saline insufflated control rats. […] Lavage LDH levels paralleled other measures of lung injury including increased epithelial-derived cytokeratin 18 and endothelial-derived angiotensin converting enzyme (ACE) levels and morphologic evidence of inflammation and injury.
Remarkably, protection occurred with ERGO administered post-insult even after some neutrophils had invaded the lung.
[…] Each value is the mean +/−SEM of 3 to 6 determinations.

The subject of experiment [2] is IL-1 insufflated rats. Kind of experiment: IL-1 insufflation inflammatory acute lung injury (ARDS) in rats. It counts as in vivo. To be noted: NAC 150 mg/kg intravenously either just before or 2½ hours after IL-1 insufflation; 5 hours; compared to untreated IL-1 insufflated rats. As for the experimental part:
Insufflating IL-1 produced an inflammatory acute lung injury (ARDS, FIG. 1A) in rats 5 hours later, which was associated with increases in lung lavage neutrophils (FIG. 1B), expired H2O2 levels (FIG. 1C) and lung GSSG levels (FIG. 1D). In contrast, rats administered NAC (150 mg/kg intravenously) either just before or 2½ hours after IL-1 insufflation had decreased lung leak index, lung lavage neutrophil numbers, expired H2O2 levels and lung GSSG levels compared to untreated rats insufflated with IL-1.

The mark [3] stands for this setting: single intravenous bolus 15 mg/kg, 1 hour before cytokine insufflation, compared to untreated cytokine insufflated rats.
The mark [4] stands for this setting: single intravenous bolus 150 mg/kg, 18 hours after cytokine insufflation, compared to untreated cytokine insufflated rats.
The mark [5] stands for this setting: single intravenous injection 150 mg/kg, 1 hour before IL-1 and IFN-γ insufflation, 24 hours.

Consider `C[N+](C)(C)[C@@H](Cc1c[nH]c(=S)[nH]1)C(=O)[O-]` [ERGO, ergothioneine], for which, in experiment [1] (setting [3]), the lung injury result is “less” and the lung neutrophils result is recorded as “less”. In experiment [1] (setting [4]), the lung neutrophil numbers entry is “reduction in the severity” and the “markers of alveolar capillary membrane injury” value was “reduction in the severity”. Also, the lung inflammation entry in experiment [1] (single intravenous bolus 150 mg/kg, 18 hours after cytokine insufflation, data not shown) is recorded as “reduction in the severity”. In addition, in experiment [1] (setting [5]), the “lung lavage LDH concentrations” value is “decreased”, the “lung lavage neutrophil concentrations” value was “decreased” and the “lung lavage total leukocyte concentrations” value is on record as “decreased”.
`CC(=O)N[C@@H](CS)C(=O)O` [NAC, N-acetylcysteine]: in experiment [2], the “expired H2O2 levels” value was “decreased”, the “lung GSSG levels” value is listed as “decreased”, the “lung lavage neutrophil numbers” value was “decreased” and the lung leak index result is given as “decreased”.

Values taken from patent US9383348B2, “Compositions and methods for treating lung disorders” (priority 2008, dated 2016).
